The compounds below were run against T1, IKZF2 (Homo sapiens, UniProt Q96SW2+Q9UKS7) (assay: HiBiT protein tagging assay, in vitro IKZF2 degradation (HEK293)). Settings: IKZF2-HiBiT reporter Flp-In T-REx HEK293 cells, doxycycline-induced, compound overnight (18-24 hr), normalized to DMSO control; read-out: IKZF2 Dmax (maximum degradation at the highest concentration tested).
T1 construct: expressed in transfected cells
Assay type: cell-based
Procedure: In vitro degradation of IKZF1 and IKZF2 was measured using HiBiT protein tagging and detection technology (Promega).
HiBiT technology (Promega) was used to develop the quantitative assays to measure the cellular IKZFs level by tagging an 11 amino acid HiBit peptides VSGWRLFKKIS (SEQ ID NO:1) to the protein of interest. Reporter plasmids were generated by fusing a linker sequence (GSSGGSSG; SEQ ID NO:2) followed by the HiBiT tag at the C terminus of IKZF1 and IKZF2. The fusion fragments were subsequently cloned into pcDNA5 pcDNA™5/FRT/TO plasmids (Thermo Fisher, cat #V652020) downstream of the Tetracycline operator. The resulting plasmids were co-transfected with pOG44 Flp-Recombinase Expression Vector (Thermo Fisher, cat #V600520) into Flp-In™ T-REx HEK293 line (Thermo Fisher, cat #R78077) and a stable cell pool was selected by adding 100 μg/ml of Hygromycin (Thermo Fisher, cat #10687010). The reporter cell enabled Tet-On inducible reporter expression from a single copy of the integrated gene.
On Day 1, Cells were grown to ˜80% confluency in TC medium (DMEM Glutamax (Gibco10569), 10% Tet free FBS (Takara 631106), and PenStrep Glutamin (Gibco 10378)) in tissue culture flasks. Doxycycline was then added to a final concentration of 1 μg/ml to induce reporter expression at 37° C. overnight.
On Day 2, 125 nL of serially-diluted solution of testing compounds were dispensed into 384-well white solid assay plates via ECHO acoustic liquid handler. Cells were lifted by 0.25% Trypsin (Gibco 25200) then pelleted by centrifugation (Beckman Avanti J-E) at 500×g for 5 min. Cell pellets were resuspended in TC medium at the concentration of 3e5/mL and 25 μL of cell suspension were added into each well of compound-spotted plates. The plates were returned to a 37° C. incubator overnight (18-24 hr).
On Day 3, assay plates were removed from the TC incubator and 25 μL of Nano-Glo lytic detection system (Promega, cat #N3030) was added to each well. Plates were incubated at r.t. for 3 min with shaking, and luminescence was read using an Envision reader (Perkin Elmer).
All raw data was normalized to DMSO control (final concentration: 0.5%) wells as POC and plotted out for EC50 and Dmax (Maximum degradation at the highest concentration tested in the assay).

T1 sequence (Q9UKS7 1-500 isoform Q9UKS7-2): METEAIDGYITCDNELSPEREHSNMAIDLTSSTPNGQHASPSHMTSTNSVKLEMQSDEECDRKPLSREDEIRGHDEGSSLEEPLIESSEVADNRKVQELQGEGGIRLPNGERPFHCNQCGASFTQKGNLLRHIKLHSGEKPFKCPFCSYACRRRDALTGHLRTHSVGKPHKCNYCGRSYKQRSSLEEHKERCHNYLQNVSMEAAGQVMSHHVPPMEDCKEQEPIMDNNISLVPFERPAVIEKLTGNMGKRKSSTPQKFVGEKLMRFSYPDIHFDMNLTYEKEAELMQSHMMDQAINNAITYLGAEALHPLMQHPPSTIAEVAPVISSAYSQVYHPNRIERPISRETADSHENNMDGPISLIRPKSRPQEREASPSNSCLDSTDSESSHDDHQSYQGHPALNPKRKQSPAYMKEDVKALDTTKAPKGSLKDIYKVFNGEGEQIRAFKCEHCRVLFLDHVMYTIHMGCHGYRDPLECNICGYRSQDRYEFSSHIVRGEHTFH
T1 sequence (Q96SW2 whole entry): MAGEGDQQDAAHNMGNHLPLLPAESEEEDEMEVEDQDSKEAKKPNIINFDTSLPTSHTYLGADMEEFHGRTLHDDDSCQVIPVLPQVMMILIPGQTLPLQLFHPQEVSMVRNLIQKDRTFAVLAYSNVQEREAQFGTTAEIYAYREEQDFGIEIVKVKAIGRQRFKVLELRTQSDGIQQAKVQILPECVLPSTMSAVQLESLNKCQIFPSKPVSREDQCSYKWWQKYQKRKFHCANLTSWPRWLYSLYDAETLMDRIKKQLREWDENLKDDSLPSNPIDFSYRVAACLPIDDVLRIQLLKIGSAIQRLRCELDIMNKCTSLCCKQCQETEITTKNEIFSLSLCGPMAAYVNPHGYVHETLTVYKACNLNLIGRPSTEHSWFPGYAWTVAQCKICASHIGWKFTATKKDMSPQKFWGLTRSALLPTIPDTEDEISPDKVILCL
T1 sequence (Q16531 whole entry partner): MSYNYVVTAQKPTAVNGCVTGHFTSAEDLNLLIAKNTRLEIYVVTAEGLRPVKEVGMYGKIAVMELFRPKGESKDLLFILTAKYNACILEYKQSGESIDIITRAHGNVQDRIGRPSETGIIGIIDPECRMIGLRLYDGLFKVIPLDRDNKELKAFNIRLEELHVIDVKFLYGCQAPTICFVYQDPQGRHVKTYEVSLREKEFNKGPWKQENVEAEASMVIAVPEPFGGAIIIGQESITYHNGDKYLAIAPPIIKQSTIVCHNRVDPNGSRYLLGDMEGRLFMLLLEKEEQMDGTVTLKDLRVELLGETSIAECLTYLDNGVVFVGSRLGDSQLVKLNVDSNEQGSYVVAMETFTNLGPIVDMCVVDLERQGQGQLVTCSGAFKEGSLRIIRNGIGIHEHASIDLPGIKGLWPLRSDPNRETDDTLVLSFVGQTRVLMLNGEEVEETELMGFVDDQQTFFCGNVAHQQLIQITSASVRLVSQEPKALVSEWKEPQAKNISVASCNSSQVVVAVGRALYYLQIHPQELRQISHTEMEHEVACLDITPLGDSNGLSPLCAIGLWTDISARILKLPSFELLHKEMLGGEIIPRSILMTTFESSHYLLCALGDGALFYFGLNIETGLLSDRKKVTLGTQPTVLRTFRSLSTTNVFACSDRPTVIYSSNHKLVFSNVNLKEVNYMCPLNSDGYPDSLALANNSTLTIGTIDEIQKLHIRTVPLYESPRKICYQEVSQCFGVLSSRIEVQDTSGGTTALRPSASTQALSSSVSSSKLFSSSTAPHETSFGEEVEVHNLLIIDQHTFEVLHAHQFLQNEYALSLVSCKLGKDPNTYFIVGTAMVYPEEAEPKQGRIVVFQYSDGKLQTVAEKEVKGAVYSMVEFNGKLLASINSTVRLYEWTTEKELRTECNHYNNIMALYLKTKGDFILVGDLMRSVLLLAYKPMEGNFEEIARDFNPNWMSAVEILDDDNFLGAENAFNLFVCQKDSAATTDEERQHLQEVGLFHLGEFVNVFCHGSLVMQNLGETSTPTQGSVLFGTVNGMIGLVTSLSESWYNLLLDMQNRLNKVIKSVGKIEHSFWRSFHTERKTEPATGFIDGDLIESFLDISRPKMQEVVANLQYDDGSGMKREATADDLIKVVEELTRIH

Dmax [%]	Structure (SMILES)
94	O=C1CCC(N2Cc3cc(OC4CN(Cc5ccccc5)CCC4NCc4ccccc4)ccc3C2=O)C(=O)N1 (racemic) [Example 2]
85	O=C1CCC(N2Cc3cc(O[C@H]4CN(Cc5ccccc5Cl)CC[C@@H]4NCc4ccccc4)ccc3C2=O)C(=O)N1 (mixture of isomers) [Example 3]
51	CCN1CCC(NCc2ccccc2)C(Oc2ccc3c(c2)CN(C2CCC(=O)NC2=O)C3=O)C1 (racemic) [Example 4]
47	CC(C)N1CCC(NCc2ccccc2)C(Oc2ccc3c(c2)CN(C2CCC(=O)NC2=O)C3=O)C1 (racemic) [Example 5]
35	CC(C)CN1CCC(NCc2ccccc2)C(Oc2ccc3c(c2)CN(C2CCC(=O)NC2=O)C3=O)C1 (racemic) [Example 6]
92	O=C1CCC(N2Cc3cc(OC4CN(Cc5cccnc5)CCC4NCc4ccccc4)ccc3C2=O)C(=O)N1 (racemic) [Example 7]
64	O=C1CCC(N2Cc3cc(OC4CN(Cc5ccccn5)CCC4NCc4ccccc4)ccc3C2=O)C(=O)N1 (racemic) [Example 8]
87	O=C1CCC(N2Cc3cc(OC4CN(Cc5ccncc5)CCC4NCc4ccccc4)ccc3C2=O)C(=O)N1 (racemic) [Example 9]
69	O=C1CCC(N2Cc3cc(O[C@H]4CN(Cc5ccccc5)CC[C@@H]4NCc4ccccc4Cl)ccc3C2=O)C(=O)N1 (mixture of isomers) [Example 10]
90	CCN(CC)C1CCN(Cc2ccccc2)CC1Oc1ccc2c(c1)CN(C1CCC(=O)NC1=O)C2=O (racemic) [Example 11]
97	CCNC1CCN(Cc2ccccc2)CC1Oc1ccc2c(c1)CN(C1CCC(=O)NC1=O)C2=O (racemic) [Example 12]
84	O=C1CCC(N2Cc3cc(OC4CN(Cc5ccccc5)CCC4NCc4ccccn4)ccc3C2=O)C(=O)N1 (racemic) [Example 13]
91	O=C1CCC(N2Cc3cc(OC4CN(Cc5ccccc5)CCC4NCc4cccnc4)ccc3C2=O)C(=O)N1 (racemic) [Example 14]
73	O=C1CCC(N2Cc3cc(OC4CN(Cc5ccccc5)CCC4NCc4ccncc4)ccc3C2=O)C(=O)N1 (racemic) [Example 15]
57	O=C1CCC(N2Cc3cc(O[C@@H]4CN(C5CC5)CC[C@H]4NCc4ccccc4)ccc3C2=O)C(=O)N1 (mixture of isomers) [Example 16]
91	O=C1CCC(N2Cc3cc(O[C@H]4CN(Cc5ccccc5F)CC[C@@H]4NCc4ccccc4)ccc3C2=O)C(=O)N1 (mixture of isomers) [Example 17]
97	O=C1CCC(N2Cc3cc(O[C@H]4CN(Cc5ccc(F)cc5)CC[C@@H]4NCc4ccccc4)ccc3C2=O)C(=O)N1 (mixture of isomers) [Example 18]
89	O=C1CCC(N2Cc3cc(O[C@H]4CN(Cc5cccc(F)c5)CC[C@@H]4NCc4ccccc4)ccc3C2=O)C(=O)N1 (mixture of isomers) [Example 19]
86	O=C1CCC(N2Cc3cc(O[C@H]4CN(Cc5cccc(F)c5F)CC[C@@H]4NCc4ccccc4)ccc3C2=O)C(=O)N1 (mixture of isomers) [Example 20]
92	O=C1CCC(N2Cc3cc(O[C@H]4CN(Cc5ccc(F)cc5F)CC[C@@H]4NCc4ccccc4)ccc3C2=O)C(=O)N1 (mixture of isomers) [Example 21]
88	O=C1CCC(N2Cc3cc(O[C@H]4CN(Cc5cc(F)ccc5F)CC[C@@H]4NCc4ccccc4)ccc3C2=O)C(=O)N1 (mixture of isomers) [Example 23]
93	O=C1CCC(N2Cc3cc(O[C@H]4CN(Cc5c(F)cccc5F)CC[C@@H]4NCc4ccccc4)ccc3C2=O)C(=O)N1 (mixture of isomers) [Example 24]
75	O=C1CCC(N2Cc3cc(O[C@H]4CN(Cc5cc(F)cc(F)c5)CC[C@@H]4NCc4ccccc4)ccc3C2=O)C(=O)N1 (mixture of isomers) [Example 25]

Dmax [%]	Structure (SMILES)
89	O=C1CCC(N2Cc3cc(O[C@H]4CN(Cc5ccccc5)CC[C@@H]4NCc4ccc(F)cc4)ccc3C2=O)C(=O)N1 (mixture of isomers) [Example 26]
92	CCNC1CCN(Cc2ccc(F)cc2)CC1Oc1ccc2c(c1)CN(C1CCC(=O)NC1=O)C2=O (racemic) [Example 27]
90	O=C1CCC(N2Cc3cc(O[C@H]4CN(Cc5ccccc5)CC[C@@H]4NCc4ccccc4F)ccc3C2=O)C(=O)N1 (mixture of isomers) [Example 28]
88	O=C1CCC(N2Cc3cc(O[C@H]4CN(Cc5ccccc5)CC[C@@H]4NCc4cccc(F)c4)ccc3C2=O)C(=O)N1 (mixture of isomers) [Example 29]
95	O=C1CCC(N2Cc3cc(O[C@H]4CN(Cc5ccc(Cl)cc5)CC[C@@H]4NCc4ccccc4)ccc3C2=O)C(=O)N1 (mixture of isomers) [Example 30]
98	O=C1CCC(N2Cc3cc(OC4CN(Cc5ccccc5)CCC4NCCc4ccccc4)ccc3C2=O)C(=O)N1 (racemic) [Example 35]
98	CC(C)NC1CCN(Cc2ccccc2)CC1Oc1ccc2c(c1)CN(C1CCC(=O)NC1=O)C2=O (racemic) [Example 36]
98	O=C1CCC(N2Cc3cc(OC4CN(Cc5ccccc5)CCC4NCC4CC4)ccc3C2=O)C(=O)N1 (racemic) [Example 37]
97	CCN[C@H]1CCN(Cc2ccc(F)cc2F)C[C@@H]1Oc1ccc2c(c1)CN(C1CCC(=O)NC1=O)C2=O (mixture of isomers) [Example 38]
28	N#CCN1CCC(NCc2ccccc2)C(Oc2ccc3c(c2)CN(C2CCC(=O)NC2=O)C3=O)C1 (racemic) [Example 41]
71	C[C@@H](c1ccccc1)N1CC[C@H](NCc2ccccc2)[C@@H](Oc2ccc3c(c2)CN(C2CCC(=O)NC2=O)C3=O)C1 (mixture of isomers) [Example 50]
57	C[C@H](c1ccccc1)N1CC[C@H](NCc2ccccc2)[C@@H](Oc2ccc3c(c2)CN(C2CCC(=O)NC2=O)C3=O)C1 (mixture of isomers) [Example 51]
27	O=C1CCC(N2Cc3cc(O[C@H]4CN(CCC(F)(F)F)CC[C@@H]4NCc4ccccc4)ccc3C2=O)C(=O)N1 (mixture of isomers) [Example 52]
77	O=C1CCC(N2Cc3cc(O[C@H]4CN(CCF)CC[C@@H]4NCc4ccccc4)ccc3C2=O)C(=O)N1 (mixture of isomers) [Example 53]
96	CCNC1CCN(Cc2ccc3ccccc3c2)CC1Oc1ccc2c(c1)CN(C1CCC(=O)NC1=O)C2=O (racemic) [Example 56]
98	CCN(CC)C1CCN(Cc2ccc3ccccc3c2)CC1Oc1ccc2c(c1)CN(C1CCC(=O)NC1=O)C2=O (racemic) [Example 57]
96	CCOC1CN(C2CCN(Cc3ccccc3)CC2Oc2ccc3c(c2)CN(C2CCC(=O)NC2=O)C3=O)C1 (racemic) [Example 58]
86	O=C1CCC(N2Cc3cc(OC4CN(Cc5ccccc5)CCC4NCCF)ccc3C2=O)C(=O)N1 (racemic) [Example 59]
83	CCNC1CCN(Cc2cccc(-c3ccccc3)c2)CC1Oc1ccc2c(c1)CN(C1CCC(=O)NC1=O)C2=O (racemic) [Example 60]
82	O=C1CCC(N2Cc3cc(OC4CN(Cc5ccccc5)CCC4N(C4CC4)C4CC4)ccc3C2=O)C(=O)N1 (racemic) [Example 61]
94	O=C1CCC(N2Cc3cc(OC4CN(Cc5ccccc5)CCC4NC4CC4)ccc3C2=O)C(=O)N1 (racemic) [Example 63]
53	CN1CC[C@@H](NCc2ccccc2)[C@H](Oc2ccc3c(c2)CN(C2CCC(=O)NC2=O)C3=O)C1 (relative stereo) [Example 1, 3-(5-((trans-4-(benzylamino)-1-methylpiperidin-3-yl)oxy)-1-oxoisoindolin-2-yl)piperidine-2,6-dione]

Structure (SMILES)	Dmax [%]
O=C1CCC(N2Cc3cc(O[C@H]4CN(Cc5ccc(F)c(F)c5)CC[C@@H]4NCc4ccccc4)ccc3C2=O)C(=O)N1 (mixture of isomers) [Example 22]	90
O=C1CCC(N2Cc3cc(O[C@H]4CN(Cc5ccc(-c6ccccc6)cc5)CC[C@@H]4NCc4ccccc4)ccc3C2=O)C(=O)N1 (mixture of isomers) [Example 31]	101
N#Cc1ccc(CN2CC[C@H](NCc3ccccc3)[C@@H](Oc3ccc4c(c3)CN(C3CCC(=O)NC3=O)C4=O)C2)cc1 (mixture of isomers) [Example 32]	94
COc1ccc(CN2CC[C@H](NCc3ccccc3)[C@@H](Oc3ccc4c(c3)CN(C3CCC(=O)NC3=O)C4=O)C2)cc1 (mixture of isomers) [Example 33]	94
O=C1CCC(N2Cc3cc(O[C@H]4CN(Cc5ccc(C(F)(F)F)cc5)CC[C@@H]4NCc4ccccc4)ccc3C2=O)C(=O)N1 (mixture of isomers) [Example 34]	80

From patent US12122764B2, “IKAROS zinc finger family degraders and uses thereof” (Gilead Sciences, Inc., priority 2021, dated 2024)
